SMILES strings stand for the structures. Activity calls are given as the source filed them.

Common to all, as to assay type: functional
Assay [1] addresses T1, Tyrosine-protein kinase ITK/TSK (Homo sapiens, UniProt Q08881).
T1 sequence (Q08881 whole entry): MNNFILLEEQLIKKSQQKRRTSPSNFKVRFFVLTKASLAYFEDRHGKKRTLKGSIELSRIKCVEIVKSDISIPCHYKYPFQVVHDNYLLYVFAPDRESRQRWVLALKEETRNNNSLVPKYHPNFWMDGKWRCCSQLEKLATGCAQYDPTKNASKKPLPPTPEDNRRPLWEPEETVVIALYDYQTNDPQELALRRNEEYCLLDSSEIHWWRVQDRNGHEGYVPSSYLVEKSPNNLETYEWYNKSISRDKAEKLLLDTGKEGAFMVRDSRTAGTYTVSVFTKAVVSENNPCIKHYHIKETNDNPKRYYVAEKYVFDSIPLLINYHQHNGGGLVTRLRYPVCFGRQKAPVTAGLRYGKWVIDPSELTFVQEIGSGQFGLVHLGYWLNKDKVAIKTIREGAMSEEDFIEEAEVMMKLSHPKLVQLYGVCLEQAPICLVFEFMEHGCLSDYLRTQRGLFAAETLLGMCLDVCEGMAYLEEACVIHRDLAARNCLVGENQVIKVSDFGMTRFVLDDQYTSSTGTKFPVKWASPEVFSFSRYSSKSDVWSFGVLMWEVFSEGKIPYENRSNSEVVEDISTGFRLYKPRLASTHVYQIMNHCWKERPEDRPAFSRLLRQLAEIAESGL

Assay [2] addresses T2, Tyrosine-protein kinase receptor TYRO3 (Homo sapiens, UniProt Q06418).
T2 sequence (Q06418 whole entry): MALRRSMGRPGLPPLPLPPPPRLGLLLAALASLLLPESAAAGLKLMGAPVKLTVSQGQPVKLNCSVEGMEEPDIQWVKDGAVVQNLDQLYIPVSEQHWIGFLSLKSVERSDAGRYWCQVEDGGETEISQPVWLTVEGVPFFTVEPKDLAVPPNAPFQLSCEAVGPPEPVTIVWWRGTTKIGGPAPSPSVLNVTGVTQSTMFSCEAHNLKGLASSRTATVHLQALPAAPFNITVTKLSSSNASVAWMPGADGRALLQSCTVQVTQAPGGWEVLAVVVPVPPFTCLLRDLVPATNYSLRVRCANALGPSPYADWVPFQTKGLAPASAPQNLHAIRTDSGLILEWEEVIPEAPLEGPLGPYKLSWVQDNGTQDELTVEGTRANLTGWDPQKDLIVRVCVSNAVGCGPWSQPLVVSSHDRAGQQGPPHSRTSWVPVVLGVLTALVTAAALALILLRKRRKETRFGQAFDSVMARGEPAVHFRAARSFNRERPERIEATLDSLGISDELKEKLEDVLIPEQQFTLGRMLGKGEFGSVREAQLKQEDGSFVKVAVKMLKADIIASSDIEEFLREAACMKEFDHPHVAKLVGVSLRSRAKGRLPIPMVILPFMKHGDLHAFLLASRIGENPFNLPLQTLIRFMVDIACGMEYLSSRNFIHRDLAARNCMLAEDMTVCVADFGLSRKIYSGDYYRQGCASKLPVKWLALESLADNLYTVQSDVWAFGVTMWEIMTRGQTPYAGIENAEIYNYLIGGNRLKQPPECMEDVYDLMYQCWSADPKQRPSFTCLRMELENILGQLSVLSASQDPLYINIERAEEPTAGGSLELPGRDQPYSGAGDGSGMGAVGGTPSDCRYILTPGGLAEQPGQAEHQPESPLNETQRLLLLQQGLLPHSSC

Assay [3] has as its target Serine/threonine-protein kinase Nek4 (Homo sapiens, UniProt P51957).
Assay [4] has as its target Receptor tyrosine-protein kinase erbB-2 (Homo sapiens, UniProt P04626). Briefly: Navigating the Kinome. Panel member name: ERBB2.
Assay [5] addresses STE20-like serine/threonine-protein kinase (Homo sapiens, UniProt Q9H2G2).
The target in assay [6] is Serine/threonine-protein kinase PLK3 (Homo sapiens, UniProt Q9H4B4).
For assay [7], the target named is T3, cAMP-dependent protein kinase catalytic subunit PRKX (Homo sapiens, UniProt P51817).
T3 sequence (P51817 whole entry): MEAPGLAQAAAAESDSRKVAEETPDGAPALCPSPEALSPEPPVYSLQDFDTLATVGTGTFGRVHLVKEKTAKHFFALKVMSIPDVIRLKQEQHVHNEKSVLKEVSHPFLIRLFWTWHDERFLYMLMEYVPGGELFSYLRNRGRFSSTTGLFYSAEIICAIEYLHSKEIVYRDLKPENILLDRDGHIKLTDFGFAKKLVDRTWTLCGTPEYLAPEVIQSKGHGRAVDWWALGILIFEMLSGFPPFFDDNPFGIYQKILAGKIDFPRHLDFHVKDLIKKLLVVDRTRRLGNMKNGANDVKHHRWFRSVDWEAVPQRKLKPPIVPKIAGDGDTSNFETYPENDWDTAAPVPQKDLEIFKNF

Another assay addresses Ephrin type-A receptor 2 (Homo sapiens, UniProt P29317).
In assay [8] the target is Cell division cycle 7-related protein kinase (Homo sapiens, UniProt O00311).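 Further: value obtained from a kinome-wide kinase panel.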
Chain of Cell division cycle 7-related protein kinase (O00311 whole entry): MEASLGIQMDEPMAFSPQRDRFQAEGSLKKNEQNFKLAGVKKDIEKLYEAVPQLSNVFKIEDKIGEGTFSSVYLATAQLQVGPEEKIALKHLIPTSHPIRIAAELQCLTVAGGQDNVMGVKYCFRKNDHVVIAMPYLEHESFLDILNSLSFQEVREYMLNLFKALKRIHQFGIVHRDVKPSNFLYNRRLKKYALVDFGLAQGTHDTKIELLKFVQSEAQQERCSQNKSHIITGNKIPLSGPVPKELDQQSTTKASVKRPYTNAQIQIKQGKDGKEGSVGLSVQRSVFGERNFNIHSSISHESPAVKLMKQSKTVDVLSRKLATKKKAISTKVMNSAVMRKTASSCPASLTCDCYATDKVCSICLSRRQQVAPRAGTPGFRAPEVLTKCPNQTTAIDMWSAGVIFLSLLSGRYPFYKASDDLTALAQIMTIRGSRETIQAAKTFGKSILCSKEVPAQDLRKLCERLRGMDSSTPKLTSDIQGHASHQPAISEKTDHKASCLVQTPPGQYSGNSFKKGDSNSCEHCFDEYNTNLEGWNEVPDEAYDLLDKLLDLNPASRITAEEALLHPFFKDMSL

Chain of Serine/threonine-protein kinase Nek4 (P51957 whole entry): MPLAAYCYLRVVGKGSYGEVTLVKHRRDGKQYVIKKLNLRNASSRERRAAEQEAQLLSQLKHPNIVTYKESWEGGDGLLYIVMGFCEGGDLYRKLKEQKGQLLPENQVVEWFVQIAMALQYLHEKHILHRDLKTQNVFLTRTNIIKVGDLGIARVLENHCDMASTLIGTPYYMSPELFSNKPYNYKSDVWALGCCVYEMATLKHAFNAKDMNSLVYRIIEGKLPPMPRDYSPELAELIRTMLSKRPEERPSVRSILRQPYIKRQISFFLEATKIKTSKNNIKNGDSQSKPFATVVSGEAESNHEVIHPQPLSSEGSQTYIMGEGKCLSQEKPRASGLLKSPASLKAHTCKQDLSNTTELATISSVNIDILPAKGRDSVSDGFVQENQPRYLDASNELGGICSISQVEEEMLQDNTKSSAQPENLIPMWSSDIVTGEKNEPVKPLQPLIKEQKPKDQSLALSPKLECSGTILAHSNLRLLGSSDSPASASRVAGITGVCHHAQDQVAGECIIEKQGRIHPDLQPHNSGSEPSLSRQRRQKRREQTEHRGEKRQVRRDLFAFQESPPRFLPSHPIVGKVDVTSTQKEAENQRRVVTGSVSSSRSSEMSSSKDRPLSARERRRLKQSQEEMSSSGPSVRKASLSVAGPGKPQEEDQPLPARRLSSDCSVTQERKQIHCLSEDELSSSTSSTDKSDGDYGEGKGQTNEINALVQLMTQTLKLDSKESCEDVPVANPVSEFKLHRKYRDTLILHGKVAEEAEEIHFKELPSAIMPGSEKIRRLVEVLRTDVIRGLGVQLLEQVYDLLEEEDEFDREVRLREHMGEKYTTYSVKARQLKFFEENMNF
Chain of STE20-like serine/threonine-protein kinase (Q9H2G2 whole entry): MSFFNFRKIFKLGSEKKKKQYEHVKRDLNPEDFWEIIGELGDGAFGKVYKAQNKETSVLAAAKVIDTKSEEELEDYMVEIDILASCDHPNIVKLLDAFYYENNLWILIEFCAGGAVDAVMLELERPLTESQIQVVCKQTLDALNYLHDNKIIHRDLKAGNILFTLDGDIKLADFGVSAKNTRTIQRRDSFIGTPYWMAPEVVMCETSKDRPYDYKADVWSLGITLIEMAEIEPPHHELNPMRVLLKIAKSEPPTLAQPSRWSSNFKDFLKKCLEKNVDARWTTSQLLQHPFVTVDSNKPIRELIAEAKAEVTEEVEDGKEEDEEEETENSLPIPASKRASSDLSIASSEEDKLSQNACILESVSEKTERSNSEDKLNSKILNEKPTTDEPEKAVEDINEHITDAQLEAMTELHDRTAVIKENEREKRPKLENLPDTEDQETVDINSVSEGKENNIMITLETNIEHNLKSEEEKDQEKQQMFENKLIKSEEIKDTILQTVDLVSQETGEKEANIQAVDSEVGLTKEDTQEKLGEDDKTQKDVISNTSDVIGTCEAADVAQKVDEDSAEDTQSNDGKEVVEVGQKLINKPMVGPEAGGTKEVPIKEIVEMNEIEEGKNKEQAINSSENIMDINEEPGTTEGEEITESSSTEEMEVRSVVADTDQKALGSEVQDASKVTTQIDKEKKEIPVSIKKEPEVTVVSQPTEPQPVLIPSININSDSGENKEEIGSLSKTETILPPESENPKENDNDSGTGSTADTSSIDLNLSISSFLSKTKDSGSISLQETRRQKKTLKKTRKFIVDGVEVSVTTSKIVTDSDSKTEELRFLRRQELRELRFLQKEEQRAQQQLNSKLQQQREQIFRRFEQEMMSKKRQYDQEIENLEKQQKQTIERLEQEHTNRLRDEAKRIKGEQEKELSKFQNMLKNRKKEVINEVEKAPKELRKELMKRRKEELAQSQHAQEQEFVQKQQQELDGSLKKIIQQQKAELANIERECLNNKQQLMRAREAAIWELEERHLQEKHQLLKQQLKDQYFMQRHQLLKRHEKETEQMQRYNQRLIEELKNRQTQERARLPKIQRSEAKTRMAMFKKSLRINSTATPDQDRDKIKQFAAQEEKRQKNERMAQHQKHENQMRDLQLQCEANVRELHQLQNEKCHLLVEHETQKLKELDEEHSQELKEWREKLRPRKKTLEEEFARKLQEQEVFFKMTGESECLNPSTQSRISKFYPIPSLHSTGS
Chain of Receptor tyrosine-protein kinase erbB-2 (P04626 whole entry): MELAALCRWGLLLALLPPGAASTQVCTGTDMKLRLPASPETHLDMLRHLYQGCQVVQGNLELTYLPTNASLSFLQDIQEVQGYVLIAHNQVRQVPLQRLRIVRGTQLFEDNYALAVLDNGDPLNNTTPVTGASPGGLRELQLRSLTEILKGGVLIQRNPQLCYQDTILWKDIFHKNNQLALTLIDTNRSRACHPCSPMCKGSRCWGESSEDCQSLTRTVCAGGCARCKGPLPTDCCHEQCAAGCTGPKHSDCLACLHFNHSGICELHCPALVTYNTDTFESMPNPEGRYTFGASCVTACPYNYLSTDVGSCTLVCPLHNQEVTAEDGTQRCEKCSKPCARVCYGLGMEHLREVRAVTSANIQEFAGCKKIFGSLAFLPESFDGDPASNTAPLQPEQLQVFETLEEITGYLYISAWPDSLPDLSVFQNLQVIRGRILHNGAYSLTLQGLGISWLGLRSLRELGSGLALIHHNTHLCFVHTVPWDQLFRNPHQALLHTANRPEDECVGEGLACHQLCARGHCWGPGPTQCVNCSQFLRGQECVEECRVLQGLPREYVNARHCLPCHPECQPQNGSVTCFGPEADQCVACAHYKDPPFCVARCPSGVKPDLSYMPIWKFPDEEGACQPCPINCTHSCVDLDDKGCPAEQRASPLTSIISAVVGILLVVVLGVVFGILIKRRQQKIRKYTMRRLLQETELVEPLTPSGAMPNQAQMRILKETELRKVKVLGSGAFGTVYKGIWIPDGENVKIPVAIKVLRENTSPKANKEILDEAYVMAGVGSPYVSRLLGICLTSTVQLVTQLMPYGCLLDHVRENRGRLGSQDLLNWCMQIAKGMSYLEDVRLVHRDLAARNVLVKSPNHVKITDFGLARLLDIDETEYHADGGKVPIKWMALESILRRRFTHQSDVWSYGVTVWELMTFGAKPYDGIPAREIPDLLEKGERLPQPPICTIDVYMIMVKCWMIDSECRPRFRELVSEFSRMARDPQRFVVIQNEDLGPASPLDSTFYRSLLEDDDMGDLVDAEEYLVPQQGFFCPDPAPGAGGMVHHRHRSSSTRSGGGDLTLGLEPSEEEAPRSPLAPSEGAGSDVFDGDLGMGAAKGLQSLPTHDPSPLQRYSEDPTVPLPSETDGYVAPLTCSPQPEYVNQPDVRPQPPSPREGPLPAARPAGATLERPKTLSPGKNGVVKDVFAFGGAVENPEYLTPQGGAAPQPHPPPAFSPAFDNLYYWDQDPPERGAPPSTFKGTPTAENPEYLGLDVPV
Chain of Ephrin type-A receptor 2 (P29317 whole entry): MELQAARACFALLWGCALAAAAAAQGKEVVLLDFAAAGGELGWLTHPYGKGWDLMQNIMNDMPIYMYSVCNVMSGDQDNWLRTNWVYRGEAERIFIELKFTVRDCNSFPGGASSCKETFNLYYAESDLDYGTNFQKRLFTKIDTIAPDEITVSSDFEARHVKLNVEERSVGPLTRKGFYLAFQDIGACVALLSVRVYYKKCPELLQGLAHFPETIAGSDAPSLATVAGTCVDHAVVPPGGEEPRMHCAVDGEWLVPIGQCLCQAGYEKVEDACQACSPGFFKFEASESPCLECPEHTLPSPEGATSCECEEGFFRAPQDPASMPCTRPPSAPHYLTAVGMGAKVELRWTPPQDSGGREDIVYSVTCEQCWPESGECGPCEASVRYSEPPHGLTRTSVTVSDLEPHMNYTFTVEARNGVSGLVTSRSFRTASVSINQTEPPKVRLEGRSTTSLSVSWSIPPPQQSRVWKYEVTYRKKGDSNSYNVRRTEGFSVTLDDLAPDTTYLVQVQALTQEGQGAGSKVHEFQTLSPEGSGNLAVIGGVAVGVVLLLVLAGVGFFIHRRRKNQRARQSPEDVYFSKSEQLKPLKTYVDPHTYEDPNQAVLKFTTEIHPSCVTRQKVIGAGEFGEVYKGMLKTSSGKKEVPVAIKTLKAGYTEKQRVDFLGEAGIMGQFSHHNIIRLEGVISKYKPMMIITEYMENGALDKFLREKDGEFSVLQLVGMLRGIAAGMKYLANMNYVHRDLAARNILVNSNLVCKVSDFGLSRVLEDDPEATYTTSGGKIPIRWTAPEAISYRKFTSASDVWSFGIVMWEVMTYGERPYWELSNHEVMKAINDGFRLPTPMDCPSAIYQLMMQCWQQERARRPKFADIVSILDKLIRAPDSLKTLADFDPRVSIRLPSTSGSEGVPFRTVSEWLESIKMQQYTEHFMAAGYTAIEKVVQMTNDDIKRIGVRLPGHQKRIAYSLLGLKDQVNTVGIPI

Take `Cc1ccc(-n2nc(C(C)(C)C)cc2NC(=O)Nc2ccc(OCCN3CCOCC3)c3ccccc23)cc1` [DORAMAPIMOD]: the Ki in assay [1] was > 1.58 µM (inactive); in assay [2], 2 µM (active).

As to `NC(COc1cncc(-c2ccc3c(c2)C(=Cc2ccco2)C(=O)N3)c1)Cc1c[nH]c2ccccc12` (centres undefined), the Ki is 1.26 µM (active) in assay [1]; 1.58 µM (active) in assay [3]; 1 µM (active) in assay [4]; 0.158 µM (active) in assay [5]; 0.501 µM (active) in assay [6]; 0.00794 µM (active) in [7]. Also, the results for the Ki (at Ephrin type-A receptor 2; in [8]; in assay [2]) were > 3.16 µM (inactive), 0.251 µM (active) and > 2 µM (inactive), respectively.

In the case of `NC(=O)c1cc(-c2ccnc(N)n2)[nH]c1-c1ccc(Cl)cc1Cl`, the Ki in [1] was > 1.58 µM (inactive); in assay [3], 0.0501 µM (active); in [4], > 1.58 µM (inactive); in [5], 10 µM (active); in [6], > 7.94 µM (inactive); in [7], 1 µM (active). Further, the Ki on Ephrin type-A receptor 2 was > 3.16 µM (inactive); in [8] it was 0.0002 µM (active); in assay [2], > 2 µM (inactive). The pKi came to 7.3 in assay [3], 5 in assay [5], 6 in assay [7] and 9.7 in assay [8].

As usually defined, the Ki is a dissociation constant, usually derived from enzyme kinetics or from competition with a known ligand. The term pKi denotes the negative decadic logarithm of the Ki, by convention in mol/L. A lower pKi goes with a high Ki.

The values are drawn from ChEMBL document CHEMBL1201862, “PubChem BioAssay data set” (2004).
